These results are taken from ChEMBL document CHEMBL1201862, “PubChem BioAssay data set” (2004).

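Following 48 hours of exposure in 96-well plates, responses at five concentrations were used to interpolate endpoints linearly. GI50 marks 50% less growth.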 Calls of active or inactive are those of the source. No stated cut-off is given here; in the data, active = GI50 up to about 1.1 µM and inactive = higher. Where only a bound is given, the exact number is not on record here.

Among the test systems are EKVX; HT-29; HCT-15; RXF 393; RPMI-8226; HOP-92; SF-268; SK-OV-3; SW-620; SF-295; CAKI-1; Malme-3M; NCI-H460; OVCAR-5; NCI-H226; SK-MEL-5; SNB-75; M14.
What all share (assay): growth of human tumour cells (NCI), 48 h

For `COC(=O)CC(c1ccccc1)C1(c2ccccc2)SCCS1` (stereo not given), the GI50 with EKVX is > 290 µM (inactive); in the assay on HT-29 it was 222 µM (inactive); in the assay with HCT-15 it was 94.8 µM; with RXF 393, > 290 µM (inactive); in the assay on RPMI-8226, 21.2 µM (inactive); in the assay with HOP-92, 12.6 µM (inactive). Moreover, the GI50 in the assay on SF-268 was 150 µM (inactive); in the assay with SK-OV-3, > 290 µM (inactive); in the assay with SW-620 it was 232 µM (inactive); with SF-295, > 290 µM (inactive); with CAKI-1, 262 µM (inactive); in the assay with Malme-3M, > 290 µM (inactive). Also, the GI50 with NCI-H460 was 261 µM (inactive); with OVCAR-5 it was > 290 µM (inactive); with NCI-H226 it was > 290 µM (inactive); with SK-MEL-5 it was 189 µM (inactive).
As to `CCCOc1nc(N)c2cnn(C3CCCCO3)c2n1` (stereo not given), the GI50 is > 100 µM (inactive) in the assay on EKVX; > 100 µM (inactive) in the assay with HT-29; over 100 µM with HCT-15; > 100 µM (inactive) in the assay on RXF 393; > 100 µM (inactive) in the assay with RPMI-8226; > 100 µM (inactive) with HOP-92. In addition, the GI50 was > 100 µM (inactive) in the assay on SF-268; > 100 µM (inactive) with SK-OV-3; 56.8 µM (inactive) in the assay on SNB-75; > 100 µM (inactive) with SW-620; > 100 µM (inactive) with SF-295; > 100 µM (inactive) with M14. For the same compound, the GI50 in the assay on CAKI-1, in the assay with Malme-3M, in the assay with NCI-H460, in the assay on OVCAR-5, in the assay with NCI-H226 and with SK-MEL-5 was > 100 µM (inactive) throughout.
As to `CCC(O)(c1ccc(OC)cc1)C(c1ccc(OCc2ccccc2)cc1)c1ccc(OCc2ccccc2)cc1` (stereo not given), the GI50 was > 100 µM (inactive) in the assay with EKVX; > 100 µM (inactive) with HT-29; over 100 µM in the assay with HCT-15; > 100 µM (inactive) in the assay with RXF 393; > 100 µM (inactive) in the assay with RPMI-8226; > 100 µM (inactive) with HOP-92. Also, the GI50 with SF-268, in the assay on SK-OV-3, in the assay on SNB-75, with SW-620, in the assay with SF-295 and with M14 was > 100 µM (inactive) in each case. In addition, the GI50 in the assay on CAKI-1, in the assay on Malme-3M, in the assay on NCI-H460, with OVCAR-5, with NCI-H226 and in the assay on SK-MEL-5 was > 100 µM (inactive) in each case.
`O=C1C(=O)N(c2cc(Cl)ccc2Cl)C(=O)C(=O)C1c1nc2ccccc2s1`: the GI50 was > 100 µM (inactive) with EKVX; > 100 µM (inactive) in the assay on HT-29; over 100 µM in the assay on HCT-15; > 100 µM (inactive) in the assay on RXF 393; > 100 µM (inactive) in the assay on RPMI-8226; 24.4 µM (inactive) in the assay with HOP-92. The GI50 with SF-268 is 86.5 µM (inactive); in the assay on SK-OV-3, > 100 µM (inactive); in the assay on SNB-75 it was 49.4 µM (inactive); with SW-620 it was > 100 µM (inactive); in the assay with SF-295, > 100 µM (inactive); with M14, > 100 µM (inactive). Besides, the GI50 was > 100 µM (inactive) in the assay with CAKI-1; > 100 µM (inactive) with Malme-3M; > 100 µM (inactive) in the assay on NCI-H460; > 100 µM (inactive) in the assay on OVCAR-5; 34.4 µM (inactive) in the assay on NCI-H226; > 100 µM (inactive) in the assay on SK-MEL-5.
Regarding `CC1(C)OC(=O)C(c2cccs2)C(=O)O1`, the GI50 was > 100 µM (inactive) in the assay on EKVX; > 100 µM (inactive) in the assay on HT-29; over 100 µM in the assay with HCT-15; > 100 µM (inactive) in the assay on RXF 393; > 100 µM (inactive) in the assay on RPMI-8226; > 100 µM (inactive) in the assay on HOP-92. Moreover, the GI50 with SF-268, in the assay with SK-OV-3, with SNB-75, with SW-620, in the assay on SF-295 and in the assay with M14 was > 100 µM (inactive) throughout. Also, the GI50 in the assay on CAKI-1, in the assay with Malme-3M, in the assay on NCI-H460, with OVCAR-5, in the assay with NCI-H226 and in the assay on SK-MEL-5 was > 100 µM (inactive) each time.
Regarding `COC1[C@@H](OC(C)=O)[C@@H](NC(=O)C(Cl)(Cl)Cl)C(I)[C@@H](N2C(=O)c3ccccc3C2=O)[C@H]1OC` (stereo not given in full), the GI50 with EKVX is > 100 µM (inactive); with HT-29, > 100 µM (inactive); in the assay on HCT-15, over 100 µM; in the assay with RXF 393, > 100 µM (inactive); with RPMI-8226 it was > 100 µM (inactive); in the assay with HOP-92, 47.5 µM (inactive). Moreover, the GI50 with SF-268 was > 100 µM (inactive); in the assay on SNB-75 it was > 100 µM (inactive); in the assay on SW-620, > 100 µM (inactive); in the assay on SF-295 it was 36.6 µM (inactive); with M14 it was > 100 µM (inactive); in the assay on NCI-H460, > 100 µM (inactive). Further, the GI50 with OVCAR-5, with NCI-H226 and with SK-MEL-5 was > 100 µM (inactive) in each case.
Turning to `CCCCN(CCCC)C(=O)/C(CC(=O)c1cccc2ccccc12)=N\NC(=O)c1cc2ccccc2cc1O`, the GI50 is 21.6 µM (inactive) with EKVX; 23.8 µM (inactive) in the assay on HT-29; 24.8 µM (inactive) with RXF 393; 3.52 µM (inactive) in the assay with RPMI-8226; 19.2 µM (inactive) in the assay with HOP-92; 11.2 µM (inactive) in the assay on SF-268. The GI50 in the assay on SNB-75 is 13.4 µM (inactive); in the assay with SW-620, 32 µM (inactive); in the assay on SF-295 it was 18.3 µM (inactive); with M14, 21.9 µM (inactive); in the assay with Malme-3M, 16.9 µM (inactive); in the assay with NCI-H460, 18.4 µM (inactive). The GI50 in the assay with OVCAR-5 was 30.3 µM (inactive); in the assay on NCI-H226 it was 19.9 µM (inactive); with SK-MEL-5, 13.5 µM (inactive).
For `COC(=O)c1nn(C(=N)c2ccc(Cl)cc2)c2c1CCC2`, the GI50 is > 100 µM (inactive) with HT-29; over 100 µM with HCT-15; > 100 µM (inactive) with RXF 393; > 100 µM (inactive) in the assay with RPMI-8226; > 100 µM (inactive) in the assay on HOP-92; > 100 µM (inactive) in the assay with SF-268. The GI50 in the assay with SK-OV-3, in the assay on SNB-75, in the assay with SW-620, with SF-295, in the assay on M14 and with CAKI-1 was > 100 µM (inactive) each time. Further, the GI50 with Malme-3M, in the assay with NCI-H460, in the assay on OVCAR-5, in the assay with NCI-H226 and in the assay on SK-MEL-5 was > 100 µM (inactive) in each case.
Consider `Cc1ccccc1NC(=O)C(=O)CC(=O)c1sc(-n2nc(-c3ccccc3)cc2-c2ccccc2)nc1C`, for which the GI50 in the assay with EKVX is > 100 µM (inactive); in the assay with HT-29 it was > 100 µM (inactive); with HCT-15 it was over 100 µM; in the assay on RXF 393, > 100 µM (inactive); in the assay on RPMI-8226, > 100 µM (inactive); in the assay on HOP-92, > 100 µM (inactive). Further, the GI50 with SF-268, with SK-OV-3, in the assay on SNB-75, with SW-620, in the assay with SF-295 and in the assay on M14 was > 100 µM (inactive) throughout. For the same compound, the GI50 with CAKI-1, in the assay with Malme-3M, in the assay with NCI-H460, with OVCAR-5 and with NCI-H226 was > 100 µM (inactive) each time.
In the case of `O=C(N/C(=C\c1cccc([N+](=O)[O-])c1)c1nc2c(O)nc(S)nc2[nH]1)c1ccccc1`, the GI50 with EKVX was > 100 µM (inactive); in the assay with HT-29 it was > 100 µM (inactive); in the assay with HCT-15, over 100 µM; in the assay with RXF 393, 45.5 µM (inactive); in the assay on RPMI-8226 it was 97.1 µM (inactive); in the assay with HOP-92 it was > 100 µM (inactive). Also, the GI50 in the assay on SF-268 was 48.2 µM (inactive); with SK-OV-3, > 100 µM (inactive); in the assay on SNB-75, > 100 µM (inactive); with SW-620 it was > 100 µM (inactive); in the assay on SF-295 it was > 100 µM (inactive); with M14, > 100 µM (inactive). In addition, the GI50 in the assay on CAKI-1, in the assay with Malme-3M, in the assay with NCI-H460, with OVCAR-5, with NCI-H226 and in the assay with SK-MEL-5 was > 100 µM (inactive) throughout.
In the case of `CCCCN/C(=N\C#N)N(Cc1ccccc1)Cc1ccccc1`, the GI50 is 28.2 µM (inactive) with EKVX; 14.7 µM (inactive) in the assay with HT-29; 16.3 µM in the assay with HCT-15; 45.2 µM (inactive) in the assay on RXF 393; 16.6 µM (inactive) with RPMI-8226; 17.6 µM (inactive) in the assay with HOP-92. The GI50 with SF-268 is 38.1 µM (inactive); in the assay on SK-OV-3 it was 29.7 µM (inactive); in the assay on SNB-75, 31.5 µM (inactive); with SW-620 it was 16 µM (inactive); in the assay with SF-295 it was 23.4 µM (inactive); in the assay with M14 it was 20.1 µM (inactive). The GI50 was 29.1 µM (inactive) in the assay with CAKI-1; 37.2 µM (inactive) in the assay on Malme-3M; 58.5 µM (inactive) with NCI-H460; 23.5 µM (inactive) in the assay with OVCAR-5; 41.7 µM (inactive) in the assay on NCI-H226; 13.3 µM (inactive) in the assay on SK-MEL-5.
With `C=CCC1(CN(C)C)CC/C(=C\c2ccc3c(c2)OCO3)C1=O` (stereo not given), the GI50 was 18.1 µM (inactive) in the assay with EKVX; 36 µM (inactive) in the assay on HT-29; 39.4 µM in the assay with HCT-15; 59.8 µM (inactive) with RXF 393; 24.3 µM (inactive) with RPMI-8226; 89.9 µM (inactive) in the assay on HOP-92. Moreover, the GI50 with SF-268 is 91 µM (inactive); with SNB-75 it was > 100 µM (inactive); in the assay on SW-620, 35.1 µM (inactive); in the assay with SF-295, > 100 µM (inactive); in the assay with M14, 56.9 µM (inactive); with CAKI-1, 68.5 µM (inactive). Also, the GI50 with Malme-3M was > 100 µM (inactive); in the assay on NCI-H460 it was 50.4 µM (inactive); in the assay on OVCAR-5, > 100 µM (inactive); in the assay with NCI-H226, > 100 µM (inactive); in the assay on SK-MEL-5, 22.7 µM (inactive).
